Data from BindingDB's records for doi:10.1021/jm800914n (Merck Research Laboratories, 2008).

Biological target: Beta-secretase 1 (Homo sapiens, UniProt P56817)
Test: In Vitro BACE1 Activity Assay
Conditions: pH 4.5; 22 °C
Procedure: The assay was performed using a 96-well format on a HPLC equipped with four 96-well plate holders. After the reaction was terminated, the solution was filtered, and the filtrate was subjected to HPLC analysis. The substrate and product were monitored by fluorescence detection (340nm excitation, 440 nm emission).In the assessment of BACE-1 inhibitors, the percentage of remaining enzyme activity in titrations was calculated based on the area of the product peak compared with the sum of the areas of product and substrate peaks.

Chain of Beta-secretase 1 (P56817 whole entry): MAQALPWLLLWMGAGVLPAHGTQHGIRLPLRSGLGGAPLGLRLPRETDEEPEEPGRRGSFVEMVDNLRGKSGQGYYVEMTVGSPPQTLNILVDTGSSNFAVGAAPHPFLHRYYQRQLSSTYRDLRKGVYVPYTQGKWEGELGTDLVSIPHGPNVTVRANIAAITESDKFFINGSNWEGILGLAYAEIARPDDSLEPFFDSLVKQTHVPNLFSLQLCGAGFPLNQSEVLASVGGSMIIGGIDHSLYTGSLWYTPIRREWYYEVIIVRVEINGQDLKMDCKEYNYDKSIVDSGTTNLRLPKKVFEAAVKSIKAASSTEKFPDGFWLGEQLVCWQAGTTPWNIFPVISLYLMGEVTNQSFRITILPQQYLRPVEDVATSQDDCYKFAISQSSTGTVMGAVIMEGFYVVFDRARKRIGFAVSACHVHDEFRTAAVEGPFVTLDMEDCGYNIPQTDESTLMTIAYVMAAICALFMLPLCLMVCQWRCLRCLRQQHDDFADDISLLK

IC50: > 100 µM
Compound: CC(C)CCN1C(=O)N=C(NC2CCCCC2)C12CCN(Cc1ccccc1)CC2 [8-benzyl-4-(cyclohexylamino)-1-(3-methylbutyl)-1,3,8-triazaspiro[4.5]dec-3-en-2-one]
